Measured values published in patent US7709223B2, “Method for detecting bacteria with chromogenic substrates for β-D-ribofuranosidase” (priority 2001, dated 2010).
Counter-ions that a name gives are not always drawn.

Legend:
Assay in all cases: Hydrolysis on Columbia agar with ferric ammonium citrate
Format in all cases: cell-based
C. freundii = test system: C. freundii; design: key to the marks not given beside the values
Method: (§1) The chromogenic β-D-ribofuranoside substrate was added to Columbia agar at a substrate concentration of 300 mg/l. Ferric ammonium citrate was included at 500 mg/l. All ingredients were autoclaved at 116° C. for 20 minutes to ensure sterilisation. Agar plates were then prepared in 90 mm petri dishes. The substrate caused a yellow colouration of the agar.
(§2) For each strain tested, a bacterial suspension was prepared in sterile deionised water at an inoculum of approximately 1.5×10^8 colony forming units per ml. This was achieved using a densitometer. 1 μl of each bacterial suspension was then inoculated onto each plate using a multipoint inoculator. Strains were inoculated in parallel onto Columbia agar containing ferric ammonium citrate with no substrate (negative control).
(§3) After 18 hours incubation, strains were examined visually for the presence of colour. Any strains producing a black colouration on substrate containing media but not on the negative control plates were deemed to be hydrolysing the substrate.

Salmonella oranienburg = test system: Salmonella oranienburg; design: key to the marks not given beside the values; conditions: Salmonella oranienburg SAX 56
Method: as §1, §2, §3

Serratia spp. = test system: Serratia spp.; design: key to the marks not given beside the values
Method: as §1, §2, §3

Vibrio harveyi = test system: Vibrio harveyi; design: key to the marks not given beside the values; conditions: Vibrio harveyi NCTC 11346
Method: as §1, §2, §3

E. aerogenes = test system: E. aerogenes; design: β-Riboside (hydrolysis): key to the marks not given beside the values
Method: as §1, §2, §3

E. coli = test system: E. coli; design: β-Riboside (hydrolysis): key to the marks not given beside the values
Method: as §1, §2, §3

K. pneumoniae = test system: K. pneumoniae; design: β-Riboside (hydrolysis): key to the marks not given beside the values
Method: as §1, §2, §3

Shigella sonnei = test system: Shigella sonnei; design: β-Riboside (hydrolysis): key to the marks not given beside the values
Method: as §1, §2, §3

A. lwoffii = A. lwoffii ATCC 15309
Method: as §1, §2, §3

[1] = test system: Arcanobacterium haemolyticus
Method: as §1, §2, §3

Enterococcus casseflavus = Enterococcus casseflavus NCTC 12361
Method: as §1, §2, §3

Enterococcus faecium = test system: Enterococcus faecium
Method: as §1, §2, §3

Enterococcus gallinarum = Enterococcus gallinarum NCTC 11428
Method: as §1, §2, §3

Enterococcus raffinosis = Enterococcus raffinosis NCTC 13192
Method: as §1, §2, §3

[2] = test system: Haemolytic streptococcus B
Method: as §1, §2, §3

[3] = test system: Haemolytic streptococcus G
Method: as §1, §2, §3

Listeria ivanovii = Listeria ivanovii PHLS wild
Method: as §1, §2, §3

M. morganii = test system: M. morganii
Method: as §1, §2, §3

[4] = test system: Staphylococcus haemolyticus
Method: as §1, §2, §3

Streptococci = test system: Streptococci
Method: as §1, §2, §3

Streptococcus agalactiae = Streptococcus agalactiae NCTC 8181
Method: as §1, §2, §3

Streptococcus milleri = Streptococcus milleri wild
Method: as §1, §2, §3

Streptococcus mitis = Streptococcus mitis NCTC 12261
Method: as §1, §2, §3

Streptococcus pneumoniae = Streptococcus pneumoniae NCTC 7465
Method: as §1, §2, §3

Vibrio anguillarum = Vibrio anguillarum NCTC 12159
Method: as §1, §2, §3

Vibrio mimicus = Vibrio mimicus NCTC 11435
Method: as §1, §2, §3

Vibrio parahaemolyticus = test system: Vibrio parahaemolyticus
Method: as §1, §2, §3

Vibrio vulnificus = test system: Vibrio vulnificus
Method: as §1, §2, §3

O=c1cc(-c2ccc(OC3OC(CO)C(O)C3O)c(O)c2)oc2ccccc12 [DHF-riboside, 3′,4′-Dihydroxyflavone-4′-β-D-ribofuranoside sodium salt]
++: β-Riboside (hydrolysis) (C. freundii; C. freundii CFR 1) | β-Riboside (hydrolysis) (C. freundii; C. freundii CFR 2) | β-Riboside (hydrolysis) (C. freundii; C. freundii CFR 3) | β-Riboside (hydrolysis) (C. freundii; C. freundii CFR 4) | β-Riboside (hydrolysis) (C. freundii; C. freundii NCTC 9750) | β-Riboside (hydrolysis) (Salmonella oranienburg) | β-Riboside (hydrolysis) (Serratia spp.; Serratia spp. SEX 1) | β-Riboside (hydrolysis) (Serratia spp.; Serratia spp. SEX 2) | β-Riboside (hydrolysis) (Serratia spp.; Serratia spp. SEX 3) | β-Riboside (hydrolysis) (Serratia spp.; Serratia spp. SEX 4) | β-Riboside (hydrolysis) (Vibrio harveyi) | β-Riboside (hydrolysis) (E. aerogenes; E. aerogenes EAE 1) | β-Riboside (hydrolysis) (E. aerogenes; E. aerogenes NCIMB 10102) | β-Riboside (hydrolysis) (E. coli; E. coli ECO 2) | β-Riboside (hydrolysis) (E. coli; E. coli ECO 3) | β-Riboside (hydrolysis) (E. coli; E. coli ECO 4) | β-Riboside (hydrolysis) (E. coli; E. coli ECO 5) | β-Riboside (hydrolysis) (E. coli; E. coli ECO 6) | β-Riboside (hydrolysis) (E. coli; E. coli ECO 7) | β-Riboside (hydrolysis) (E. coli; E. coli ECO 8) | β-Riboside (hydrolysis) (E. coli; E. coli ECO 9) | β-Riboside (hydrolysis) (E. coli; E. coli ECO 10) | β-Riboside (hydrolysis) (E. coli; E. coli ECO 11) | β-Riboside (hydrolysis) (E. coli; E. coli ECO 12) | β-Riboside (hydrolysis) (E. coli; E. coli NCTC 10418) | β-Riboside (hydrolysis) (K. pneumoniae; K. pneumoniae KPN 2) | β-Riboside (hydrolysis) (K. pneumoniae; K. pneumoniae KPN 3) | β-Riboside (hydrolysis) (K. pneumoniae; K. pneumoniae KPN 4) | β-Riboside (hydrolysis) (K. pneumoniae; K. pneumoniae NCTC 10896) | β-Riboside (hydrolysis) (Shigella sonnei; Shigella sonnei NCTC 8219) | β-Riboside (hydrolysis) (Shigella sonnei; Shigella sonnei NCTC 8574) | β-Riboside (hydrolysis) (Shigella sonnei; Shigella sonnei NCTC 8586) | β-Riboside (hydrolysis) (Shigella sonnei; Shigella sonnei NCTC 9774) | β-Riboside (hydrolysis) (Shigella sonnei; Shigella sonnei NCTC 10352)
−: β-Riboside (hydrolysis) (A. lwoffii) | β-Ribofuranoside (hydrolysis) (Enterococcus casseflavus) | β-Ribofuranoside (hydrolysis) (Enterococcus faecium; Enterococcus faecium 121285 - wild ′99) | β-Ribofuranoside (hydrolysis) (Enterococcus faecium; Enterococcus faecium, Reference No. 1) | β-Ribofuranoside (hydrolysis) (Enterococcus faecium; Enterococcus faecium, Reference No. 2) | β-Ribofuranoside (hydrolysis) (Enterococcus faecium; Enterococcus faecium, Reference No. 3) | β-Ribofuranoside (hydrolysis) (Enterococcus faecium; Enterococcus faecium, Reference No. 5) | β-Ribofuranoside (hydrolysis) (Enterococcus faecium; Enterococcus faecium, Reference No. 7) | β-Ribofuranoside (hydrolysis) ([2]; Reference No. 1) | β-Ribofuranoside (hydrolysis) ([2]; Reference No. 2) | β-Ribofuranoside (hydrolysis) ([2]; Reference No. 3) | β-Ribofuranoside (hydrolysis) ([3]; Reference No. 1) | β-Ribofuranoside (hydrolysis) ([3]; Reference No. 2) | β-Riboside (hydrolysis) (M. morganii; M. morganii NCTC 235) | β-Ribofuranoside (hydrolysis) (Streptococcus agalactiae) | β-Ribofuranoside (hydrolysis) (Streptococcus milleri) | β-Ribofuranoside (hydrolysis) (Streptococcus mitis) | β-Ribofuranoside (hydrolysis) (Streptococcus pneumoniae) | β-Riboside (hydrolysis) (Vibrio anguillarum) | β-Riboside (hydrolysis) (Vibrio mimicus) | β-Riboside (hydrolysis) (Vibrio parahaemolyticus; Vibrio parahaemolyticus NCTC 10441) | β-Riboside (hydrolysis) (Vibrio parahaemolyticus; Vibrio parahaemolyticus NCTC 10884) | β-Riboside (hydrolysis) (Vibrio parahaemolyticus; Vibrio parahaemolyticus NCTC 10903) | β-Riboside (hydrolysis) (Vibrio parahaemolyticus; Vibrio parahaemolyticus NCTC 11344) | β-Riboside (hydrolysis) (Vibrio parahaemolyticus; Vibrio parahaemolyticus NCTC 12205) | β-Riboside (hydrolysis) (Vibrio vulnificus; Vibrio vulnificus NCTC 11066) | β-Riboside (hydrolysis) (Vibrio vulnificus; Vibrio vulnificus NCTC 11067)
almost universally negative: Activity with the substrate (Streptococci)
+: β-Ribofuranoside (hydrolysis) ([1]; Arcanobacterium haemolyticus NCTC 52) | β-Ribofuranoside (hydrolysis) (Enterococcus faecium; Enterococcus faecium, Reference No. 4) | β-Ribofuranoside (hydrolysis) (Enterococcus faecium; Enterococcus faecium, Reference No. 6) | β-Ribofuranoside (hydrolysis) (Enterococcus gallinarum) | β-Ribofuranoside (hydrolysis) (Enterococcus raffinosis) | β-Ribofuranoside (hydrolysis) ([3]; Reference No. 3) | β-Ribofuranoside (hydrolysis) (Listeria ivanovii) | β-Riboside (hydrolysis) (M. morganii; M. morganii MMO 1) | β-Riboside (hydrolysis) (M. morganii; M. morganii MMO 2) | β-Ribofuranoside (hydrolysis) ([4]; Staphylococcus haemolyticus RB 66) | β-Ribofuranoside (hydrolysis) ([4]; Staphylococcus haemolyticus RB 67) | β-Ribofuranoside (hydrolysis) ([4]; Staphylococcus haemolyticus RB 68) | β-Ribofuranoside (hydrolysis) ([4]; Staphylococcus haemolyticus RB 69) | β-Ribofuranoside (hydrolysis) ([4]; Staphylococcus haemolyticus RB 70)
active: Activity with the substrate ([1]; Arcanobacterium haemolyticum)
